Patent publication US7741479B2, “Urea inhibitors of MAP kinases” (Locus Pharmaceuticals, Inc., priority 2004, dated 2010)
Where two headings read alike, the source gives them in different places.

Molecular target: T1, p38 (Homo sapiens, UniProt Q16539)
T1 construct: made in house
Assay: Protein Kinase Assay (33P incorporation from γ-[33P]ATP into GST-ATF-2 substrate)
Format: biochemical
Conditions: for inhibition at 10 µM: compound at 10 μM
Summary of the method: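 Non-activated human p38 (10 nM) was preincubated with compounds for 20 min at 30° C, then GST-ATF-2 (aa 19-96) and γ-[33P]ATP were added for 70 min at 30° C. Reactions were stopped with phosphoric acid; phosphorylated substrate was captured on phosphocellulose and scintillation-counted.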

[1] = compound at 3 μM, read-out: Protein Kinase (% Inhibition at 3 μM)

T1 sequence (Q16539 whole entry): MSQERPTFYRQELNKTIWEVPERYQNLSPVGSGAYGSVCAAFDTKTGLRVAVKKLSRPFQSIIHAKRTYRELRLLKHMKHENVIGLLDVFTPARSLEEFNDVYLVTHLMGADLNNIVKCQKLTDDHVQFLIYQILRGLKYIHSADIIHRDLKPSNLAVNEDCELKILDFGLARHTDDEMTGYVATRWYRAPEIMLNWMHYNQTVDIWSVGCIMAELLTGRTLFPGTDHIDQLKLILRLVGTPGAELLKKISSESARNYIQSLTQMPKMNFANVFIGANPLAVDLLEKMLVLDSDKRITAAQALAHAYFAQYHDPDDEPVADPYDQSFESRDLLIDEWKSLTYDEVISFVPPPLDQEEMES

Row | inhibition at 3 µM [1] [%] | inhibition at 10 µM [%] | SMILES | also measured
1 | 76 to 100 |  | CC(C)(C)c1cc(NC(=O)Nc2cccc3ccccc23)c(C(=O)N2CCNC(=O)C2)s1 [Example 52, 1-[5-tert-butyl-2-(3-oxopiperazine-1-carbonyl)thiophen-3-yl]-3-naphthalen-1-ylurea] | 
2 | 76 to 100 |  | CC(C)(C)c1cc(C(=O)N2CCS(=O)(=O)CC2)c(NC(=O)Nc2ccc(C#N)cc2Cl)s1 [Example 76, 1-[5-tert-butyl-3-(1,1-dioxo-1λ^6-thiomorpholine-4-carbonyl)thiophen-2-yl]-3-(2-chloro-4-cyanophenyl)urea] | 
3 | 26 to 50 |  | CC(C)(C)c1cc(C(=O)N2CCS(=O)(=O)CC2)c(NC(=O)Nc2cnc(O)c3ccccc23)s1 [Example 85, 1-[5-tert-butyl-3-(1,1-dioxo-1λ^6-thiomorpholine-4-carbonyl)thiophen-2-yl]-3-(1-hydroxyisoquinolin-4-yl)urea] | 
4 | 76 to 100 |  | COc1ccc(NC(=O)Nc2sc(C(C)(C)C)cc2C(=O)N2CCS(=O)(=O)CC2)cc1Cl [Example 62, 1-[5-tert-butyl-3-(1,1-dioxo-1λ^6-thiomorpholine-4-carbonyl)thiophen-2-yl]-3-(3-chloro-4-methoxyphenyl)urea] | 
5 |  | 51 to 75 | CC(C)(C)c1cc(NC(=O)Nc2ccc(Cl)cc2)n(CC(=O)N2CCS(=O)(=O)CC2)n1 [Example 7, 1-{5-tert-butyl-2-[2-(1,1-dioxo-1λ^6-thiomorpholin-4-yl)-2-oxoethyl]-2H-pyrazol-3-yl}-3-(4-chlorophenyl)urea] | 
6 | 76 to 100 |  | CC(C)(C)c1cc(C(=O)N2CCS(=O)(=O)CC2)c(NC(=O)Nc2ccc3c(c2)OCO3)s1 [Example 60, 1-Benzo[1,3]dioxol-5-yl-3-[5-tert-butyl-3-(1,1-dioxo-1λ^6-thiomorpholine-4-carbonyl)thiophen-2-yl]urea] | 
7 |  | 76 to 100 | CC(C)(C)c1cc(CN2CCS(=O)(=O)CC2)c(NC(=O)Nc2ccc3ccccc3c2)s1 [Example 6, 1-[5-tert-butyl-3-(1,1-dioxo-1λ^6-thiomorpholin-4-ylmethyl)thiophen-2-yl]-3-naphthalen-2-ylurea] | 
8 | 76 to 100 |  | CC(C)(C)c1cc(C(=O)N2CCS(=O)(=O)CC2)c(NC(=O)Nc2ccc(C#N)cc2C(F)(F)F)s1 [Example 84, 1-[5-tert-butyl-3-(1,1-dioxo-1λ^6-thiomorpholine-4-carbonyl)thiophen-2-yl]-3-(4-cyano-2-trifluoromethylphenyl)urea] | 

The remaining lines, values behind:

Row | SMILES | inhibition at 3 µM [1] [%] | inhibition at 10 µM [%] | also measured
9 | CC(C)(C)c1cc(C(=O)N2CCS(=O)(=O)CC2)c(NC(=O)Nc2ccnc3ccccc23)s1 [Example 31, 1-[5-tert-butyl-3-(1,1-dioxo-1λ^6-thiomorpholine-4-carbonyl)thiophen-2-yl]-3-quinolin-4-ylurea] |  | 51 to 75 | 
10 | CC(C)(C)c1nc(C(=O)N2CCS(=O)(=O)CC2)c(NC(=O)Nc2ccc3ccccc3c2)s1 [Example 26, 1-[2-tert-butyl-4-(1,1-dioxo-1λ^6-thiomorpholine-4-carbonyl)thiazol-5-yl]-3-naphthalen-2-ylurea] |  | 51 to 75 | 
11 | CC(C)(C)c1cc(C(=O)N2CCNS(=O)(=O)CC2)c(NC(=O)Nc2ccc(Cl)cc2)s1 [Example 39, 1-[5-tert-butyl-3-(1,1-dioxo-1λ^6-[1,2,5]thiadiazepane-5-carbonyl)thiophen-2-yl]-3-(4-chlorophenyl)urea] |  |  | inhibition at 3 µM (compound at 3 μM (noted beside the value in Table 1), read-out: Protein Kinase (% Inhibition)): 76 to 100%
12 | CC(C)(C)c1cc(C(=O)N2CCNC(=O)CC2)c(NC(=O)Nc2cccc(Cl)c2)s1 [Example 54, 1-[5-tert-butyl-3-(5-oxo-[1,4]diazepane-1-carbonyl)thiophen-2-yl]-3-(3-chlorophenyl)urea] | 76 to 100 |  | 
13 | CC(C)(C)c1cc(C(=O)N2CCNC(=O)CC2)c(NC(=O)Nc2ccc3c(c2)OC(F)(F)O3)s1 [Example 74, 1-[5-tert-butyl-3-(5-oxo-[1,4]diazepane-1-carbonyl)-thiophen-2-yl]-3-(2,2-difluoro-benzo[1,3]dioxol-5-yl)urea] | 76 to 100 |  | 
14 | CC(C)(C)c1nc(C(=O)N2CCNC(=O)C2)c(NC(=O)Nc2cccc3ccccc23)s1 [Example 83, 1-[2-tert-butyl-4-(3-oxopiperazine-1-carbonyl)thiazol-5-yl]-3-naphthalen-1-ylurea] | 76 to 100 |  | 
15 | CC(C)(C)c1cc(C(=O)Nc2cccnc2)c(NC(=O)Nc2ccc(Cl)cc2)s1 [Example 75, 1-(3-(Pyridin-3-ylcarbamoyl)-5-tert-butylthiophen-2-yl)-3-(4-chlorophenyl)urea] | 76 to 100 |  | 
16 | CC(C)(C)c1cc(NC(=O)Nc2cccc3ccccc23)c(C(=O)N2CCNS(=O)(=O)CC2)s1 [Example 51, 1-[5-tert-butyl-2-(1,1-dioxo-1λ^6-[1,2,5]thiadiazepane-5-carbonyl)thiophen-3-yl]-3-naphthalen-1-ylurea] | 76 to 100 |  | 
17 | CC(C)(C)c1cc(NC(=O)Nc2ccc(Cl)cc2)n(C(=O)N2CCS(=O)(=O)CC2)n1 [Example 17, 1-[5-tert-butyl-2-(1,1-dioxo-1λ^6-thiomorpholine-4-carbonyl)-2H-pyrazol-3-yl]-3-(4-chlorophenyl)urea] |  | 76 to 100 | 
18 | CC(C)(C)c1cc(CN2CCOCC2)c(NC(=O)Nc2cccc3ccccc23)s1 [Example 19, 1-(5-tert-butyl-3-morpholin-4-ylmethylthiophen-2-yl)-3-naphthalen-1-ylurea] |  | 51 to 75 | 
19 | CC(C)(C)c1cc(C(=O)NCc2cccnc2)c(NC(=O)Nc2cccc3ccccc23)s1 [Example 131, 5-tert-Butyl-2-(3-naphthalen-1-yl-ureido)thiophene-3-carboxylic acid (pyridin-3-ylmethyl)amide] |  |  | inhibition at 0.5 µM (same procedure at 0.5 μM): 76 to 100%
20 | CC(C)(C)c1cc(C(=O)N2CCS(=O)(=O)CC2)c(NC(=O)Nc2ccc3ocnc3c2)s1 [Example 71, 1-Benzoxazol-5-yl-3-[5-tert-butyl-3-(1,1-dioxo-1λ^6-thiomorpholine-4-carbonyl)thiophen-2-yl]urea] | 76 to 100 |  | 
21 | CN(CCS(C)(=O)=O)C(=O)c1cc(C(C)(C)C)sc1NC(=O)Nc1cccc2ccccc12 [Example 82, 1-(3-(N-methyl-N-(2-(methylsulfonyl)ethyl)carbamoyl)-5-tert-butylthiophen-2-yl)-3-(naphthalen-1-yl)urea] | 76 to 100 |  | 
22 | CC(C)(C)c1cc(C(=O)N2CCS(=O)(=O)CC2)c(NC(=O)Nc2ccc3c(c2)OC(F)(F)O3)s1 [Example 61, 1-[5-tert-butyl-3-(1,1-dioxo-1λ^6-thiomorpholine-4-carbonyl)thiophen-2-yl]-3-(2,2-difluorobenzo[1,3]dioxol-5-yl)urea] | 76 to 100 |  | 
23 | CC(C)(C)c1cc(C(=O)N2CCNC(=O)CC2)c(NC(=O)Nc2ccc(C#N)c3ccccc23)s1 [Example 55, 1-[5-tert-butyl-3-(5-oxo-[1,4]diazepane-1-carbonyl)thiophen-2-yl]-3-(4-cyanonaphthyl)urea] | 76 to 100 |  | 
24 | CC(C)(C)c1nc(C(=O)N2CCNS(=O)(=O)CC2)c(NC(=O)Nc2cccc3ccccc23)s1 [Example 80, 1-[2-tert-butyl-4-(1,1-dioxo-1λ^6-[1,2,5]thiadiazepane-5-carbonyl)thiazol-5-yl]-3-naphthalen-1-ylurea] | 76 to 100 |  | 
25 | CC(C)(C)c1nc(C(=O)N2CCS(=O)(=O)CC2)c(NC(=O)Nc2cccc3ccccc23)s1 [Example 25, 1-[2-tert-butyl-4-(1,1-dioxo-1λ^6-thiomorpholine-4-carbonyl)thiazol-5-yl]-3-naphthalen-1-ylurea] |  | 76 to 100 | 
26 | CC(C)(C)c1cc(C(=O)N2CCS(=O)(=O)CC2)c(NC(=O)Nc2cccc3ccccc23)s1 [Example 2, 1-[5-tert-butyl-3-(1,1-dioxo-1λ^6-thiomorpholine-4-carbonyl)thiophen-2-yl]-3-naphthalen-1-ylurea] |  | 76 to 100 | 
